Measurements taken from US12466806B2, “2-substituted imidazolidine derivative containing aryl bipyridyloxy structure and preparation method and use thereof” (NANTONG UNIVERSITY, priority 2020, dated 2025).

Each molecule was assayed on Mythimna separata (assay: Screening of insecticidal activity against Mythimna separata, leaf soaking method (IRAC)). Conditions: concentration 500 μg/mL; 3rd instar larvae on soaked corn leaves; investigated after 48 h; 24-27° C.
Format: in vivo
Experimental: Screening of Insecticidal Activity of Compounds Against Mythimna separate
Adopting the leaf soaking method proposed by the International Resistance Action Committee (IRAC): the test target is Mythimna separata, e.g. the appropriate amount of corn leaves was fully infiltrated in the prepared liquid and then dried naturally in the shade, and placed in a petri dish with a filter paper. The 3rd instar larvas of Mythimna separata were added 10 heads per dish, cultured in the observation room at 24-27° C., and the results were investigated after 48 h. Using a brush to touch the body of the Mythimna separata, if there is no response, it is regarded as a dead insect. The test concentration is 500 μg/mL (the other concentrations of the drug solution can be obtained by diluting the drug solution with the concentration of 500 μg/mL).

Point of comparison: O=[N+]([O-])/N=C1\NCCN1Cc1ccc(Oc2ccc(Cl)cc2Cl)nc1 [I e], “death rate % Mythimna separata” value 100%. Against it:
- O=[N+]([O-])/N=C1\NCCN1Cc1ccc(Oc2ccc(Cl)cc2)nc1 [I b] — the same, 100%
- O=[N+]([O-])/N=C1\NCCN1Cc1ccc(Oc2ccccc2)nc1 [I d] — the same, 100%
- O=[N+]([O-])/N=C1\NCCN1Cc1ccc(Oc2ccc(Br)cc2)nc1 [I c] — lower, 80%
- O=[N+]([O-])/N=C1\NCCN1Cc1ccc(Oc2cccc(F)c2F)nc1 [I f] — the same, 100%
- O=[N+]([O-])/N=C1\NCCN1Cc1ccc(Oc2ccc(F)cc2)nc1 [I a] — the same, 100%
